# Biological target: GABA A receptor α1β2γ2S (Rattus norvegicus, UniProt P18508+P62813+P63138)
# Assay: two-microelectrode voltage clamp, Xenopus oocytes, potentiation of GABA current
# Type: cell-based
# GABA A receptor α1β2γ2S, sequence (P62813 28-455): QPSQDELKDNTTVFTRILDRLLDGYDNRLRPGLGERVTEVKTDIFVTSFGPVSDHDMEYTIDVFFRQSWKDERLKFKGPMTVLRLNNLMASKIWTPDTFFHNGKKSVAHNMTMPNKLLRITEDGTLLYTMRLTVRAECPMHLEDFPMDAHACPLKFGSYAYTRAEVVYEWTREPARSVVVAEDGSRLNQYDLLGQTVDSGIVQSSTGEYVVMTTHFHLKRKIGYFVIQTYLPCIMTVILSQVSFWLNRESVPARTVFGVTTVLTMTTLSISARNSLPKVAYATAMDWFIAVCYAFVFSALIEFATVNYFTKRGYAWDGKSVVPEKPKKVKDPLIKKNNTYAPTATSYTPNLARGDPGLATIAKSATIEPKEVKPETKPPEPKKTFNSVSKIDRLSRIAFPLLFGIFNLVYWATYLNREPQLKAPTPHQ
# GABA A receptor α1β2γ2S, sequence (P63138 26-474): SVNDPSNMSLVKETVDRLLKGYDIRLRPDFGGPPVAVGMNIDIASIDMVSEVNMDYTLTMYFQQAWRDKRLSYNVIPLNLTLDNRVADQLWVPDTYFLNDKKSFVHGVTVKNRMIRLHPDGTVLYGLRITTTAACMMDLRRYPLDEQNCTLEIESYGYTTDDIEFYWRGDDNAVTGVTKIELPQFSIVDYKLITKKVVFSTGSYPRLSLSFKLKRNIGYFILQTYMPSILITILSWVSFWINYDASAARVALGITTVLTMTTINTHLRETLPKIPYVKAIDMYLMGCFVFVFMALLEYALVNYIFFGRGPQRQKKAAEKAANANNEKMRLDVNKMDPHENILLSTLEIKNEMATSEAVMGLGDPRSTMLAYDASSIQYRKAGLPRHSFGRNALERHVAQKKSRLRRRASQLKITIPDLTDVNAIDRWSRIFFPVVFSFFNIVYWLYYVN
# GABA A receptor α1β2γ2S, sequence (P18508 39-466): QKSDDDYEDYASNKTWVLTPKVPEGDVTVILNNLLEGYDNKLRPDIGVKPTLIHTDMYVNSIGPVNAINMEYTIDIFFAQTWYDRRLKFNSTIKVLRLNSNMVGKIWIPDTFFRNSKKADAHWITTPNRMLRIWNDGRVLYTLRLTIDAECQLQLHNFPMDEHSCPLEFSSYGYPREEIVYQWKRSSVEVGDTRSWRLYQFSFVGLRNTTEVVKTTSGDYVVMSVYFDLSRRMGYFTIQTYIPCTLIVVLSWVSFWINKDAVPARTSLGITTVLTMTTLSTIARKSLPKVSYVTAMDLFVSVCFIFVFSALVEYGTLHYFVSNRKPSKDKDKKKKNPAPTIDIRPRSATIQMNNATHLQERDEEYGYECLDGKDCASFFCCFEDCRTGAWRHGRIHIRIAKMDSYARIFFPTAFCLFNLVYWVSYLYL
row,EC50,Structure (SMILES)
1,70.6 ± 12.2 µM,"C=CC(=C)CC[C@@H](OC(=O)/C=C/c1ccccc1)C(C)(C)O [compound 7, (+)-6-cinnamoyl-6,7-dihydro-7-myrceneol]"
2,118 ± 29.9 µM,"CC1(C)CCC[C@]1(C)C1=CC=C(C(=O)O)CC1 [compound 12, (−)-5,6-dihydrocuparenic acid]"
3,79.2 ± 19.4 µM,"COc1cc(C[C@@H](C)[C@@H](C)Cc2ccc(O)c(OC)c2)ccc1O [compound 5, dihydroguaiaretic acid]"
4,54.6 ± 28.8 µM,"COc1cc(C[C@H](C)[C@H](C)Cc2ccc(OC)c(OC)c2)ccc1O [compound 8, mono-methyl dihydroguaiaretic acid]"
5,31.5 ± 7.1 µM,"COc1cc(C[C@H](C)[C@H](C)Cc2ccc3c(c2)OCO3)ccc1O [compound 11, anwulignan]"
